Experimental data taken from US20180133211A1, “METHODS AND MATERIALS FOR PROMOTING BONE FORMATION” (Mayo Foundation for Medical Education and Research, priority 2015, published 2018).

Experiments:
[1] = Tolerability of DL-SFN injections in mice; type: in vivo, mouse; conditions: 7.5 mM DL-SFN, 200 μL intraperitoneally every other day for five weeks
Method: Analysis of SFN on mice was performed using a protocol similar to that described elsewhere (Kong et al., Arthritis Rheum., 62:159-170 (2010)). In the experimental setting herein, eight week old sham operated or ovariectomized (OVX) C57B16/J female mice were purchased from Charles River laboratories. Mice were injected with 7.5 mM DL-SFN (200 μL of SFN at a concentration of 63.8 mg/mL/kg dissolved in ethanol and further diluted in PBS) intraperitoneally every other day for five weeks. Control mice received vehicle alone.

BMSCs = experiment: RT-qPCR mRNA expression; type: cell-based, mouse
Method: Mouse bone marrow mesenchymal stem cells were isolated from aseptically dissected long bones of 6-week old C57BL/6 mice (Himberg, Austria). The marrow cavities were flushed with sterile medium using a 25-gauge needle, and the culture was established in α-MEM supplemented with 10% FCS and […]. After 48 hours of culture at 5% CO2 and 37° C., the non-adherent cells were removed by gentle rinsing with PBS. At confluence, cells were harvested and seeded at a density of 3,000/cm^2 for cell experiments. […]
Total RNA was extracted using the SV Total RNA Isolation kit (Promega) following the supplier's instructions. cDNA was synthesized from about 0.5 μg RNA using the First Strand cDNA Synthesis kit (Roche) as described by the supplier. The resulting cDNAs were subjected to quantitative PCR amplification with a real-time cycler using the QUANTITECT™ SYBR® Green PCR Kit (Qiagen, Hilden, Germany) for the genes Alpl, Fas, Lox, Tet1, Tet2, and TAQMAN® Gene expression Master Mix (Applied Biosystems, Foster City, Calif., USA) for measuring Runx2, Bglap2, Colla1, Tnfsf11, and 18S rRNA expression (for primers, see Table 1). […] All RT-qPCR assays were performed in triplicate, and expression was evaluated using the comparative quantification method (Pfaffl, Nucleic Acids Res., 29:e45 (2001)).

[2] = Body and spleen weight in GSK126 in vivo studies; set-up: species or system mouse
Method: Female C57BL/6 mice (Harlan Laboratories) were maintained on a 12-hour light/12-hour dark cycle and were permitted ad libitum access to food and water. For efficacy studies, 6-week old mice received daily intraperitoneal (IP) injections of GSK126 at 15 mg/kg, 50 mg/kg, or vehicle (DMSO) in 20% Captisol adjusted to pH 4-4.5 with IN acetic acid (McCabe et al., Nature, 492:108-112 (2012)) for 5 weeks.
The dosage, delivery schedule, and administration route were similar to those described elsewhere (McCabe et al., Nature, 492:108-112 (2012)). Animals were weighed daily. To label mineralizing bone surfaces, mice received subcutaneous injections of calcein (10 mg/kg) 5 days and 24 hours before euthanasia.
(§1) The effects of GSK126 administration on the skeleton was evaluated in an estrogen-deficient ovariectomy (OVX) model. At about 12 weeks of age, female C57BL/6 mice underwent either sham or OVX surgeries. The following day, animals received daily IP injections of GSK126 or vehicle (DMSO) at 50 mg/kg body weight for 6 weeks as described herein. To label mineralizing bone surfaces and study bone formation rates, mice received subcutaneous injections of tetracycline (25 mg/kg) 14 days prior sacrifice and calcein (10 mg/kg) at 5 days and 24 hours before euthanasia.

[3] = test system: sham or OVX female C57BL/6 mice; experiment: microCT of femur in estrogen-deficient ovariectomy (OVX) model, GSK126 for 6 weeks; type: in vivo, mouse; conditions: for SMI / Tb.N / Tb.Sp / Tb.Th / BV/TV: distal femur metaphysis; for SMI / Tb.N / Tb.Sp / Tb.Th / Ct. Ar / Ct. BV / Ct. Mat.M.Dn / Ct. Ps.Ar / Ct. Th / Ec. Ar / BV/TV: 50 mg/kg, 6 weeks; for SMI / Tb.N / Tb.Sp / Tb.Th / Ct. Ar / Ct. BV / Ct. Mat.M.Dn / Ct. Ps.Ar / Ct. Th / Ec. Ar / Ct. TV / BV/TV: mean; for Ct. Ar / Ct. BV / Ct. Mat.M.Dn / Ct. Ps.Ar / Ct. Th / Ec. Ar / Ct. TV: femoral midshaft; for Ct. TV: GSK126 50 mg/kg daily IP 6 weeks; for BV/TV: trabecular bone
Method: as §1
The quantitative analysis of the femoral metaphysis was performed using a vivaCT 40 scanner (SCANCO Medical AG) with the following parameters: E=55 kVp, 1=145 μA, integration time=300 ms. A 10.5 μm voxel size using a threshold of 220 was applied to all scans at high resolution. Using two-dimensional data from scanned slices, 3D analysis was generated and used to calculate morphometric parameters defining trabecular bone mass and micro-architecture, including Bone Volume/Tissue volume (BV/TV), trabecular number (Tb.N.), trabecular thickness (Tb.Th.), trabecular spacing (Tb.Sp.), and the structure model index (SMI), an indicator of plate-like versus rod-like trabecular architecture.

C[S+]([O-])CCCCN=C=S (racemic) [DL-SFN]
apparent adverse effects (weight loss, physical appearance, behavior) [1]: did not show apparent adverse effects
Bglap2 mRNA expression (BMSCs): up regulated
Runx2 mRNA expression (BMSCs; 3 μM): stimulates

CC[C@H](C)n1cc(C)c2c(C(=O)NCc3c(C)cc(C)[nH]c3=O)cc(-c3ccc(N4CCNCC4)nc3)cc21 [GSK126, N-[(1,2-dihydro-4,6-dimethyl-2-oxo-3-pyridinyl)methyl]-3-methyl-1-[(1S)-1-methylpropyl]-6-[6-(1-piperazinyl)-3-pyridinyl]-1H-indole-4-carboxamide]
body or spleen weight at sacrifice ([2]; C57bl/6 mice, 15 mg/kg or 50 mg/kg GSK126 for 5 weeks vs vehicle): No changes
Body and spleen weights ([2]; mouse ovariectomy model, six weeks of daily injections, between surgical and treatment groups): similar
SMI ([3]; OVX): 3.758
Tb.N ([3]; OVX): 2.102 mm^−1
Tb.Sp ([3]; OVX): 0.499 mm
Tb.Th ([3]; OVX): 0.047 mm
Ct. Ar ([3]; OVX): 0.771 mm^2
Ct. BV ([3]; OVX): 0.405 mm^3
Ct. Mat.M.Dn ([3]; OVX): 1067 mgHA/cm^3
Ct. Ps.Ar ([3]; OVX): 0.809 mm^2
Ct. Th ([3]; OVX): 0.19 mm
Ec. Ar ([3]; OVX): 0.038 mm^2
Ct. TV ([3]; OVX): 0.425 mm^3
BV/TV ([3]; OVX): 1.404%
SMI ([3]; SHAM): 4.168
Tb.N ([3]; SHAM): 2.496 mm^−1
Tb.Sp ([3]; SHAM): 0.402 mm
Tb.Th ([3]; SHAM): 0.042 mm
Ct. Ar ([3]; SHAM): 0.782 mm^2
Ct. BV ([3]; SHAM): 0.411 mm^3
Ct. Mat.M.Dn ([3]; SHAM): 1065 mgHA/cm^3
Ct. Ps.Ar ([3]; SHAM): 0.82 mm^2
Ct. Th ([3]; SHAM): 0.197 mm
Ec. Ar ([3]; SHAM): 0.037 mm^2
Ct. TV ([3]; SHAM): 0.430 mm^3
BV/TV ([3]; SHAM): 1.642%
OVX-induced cortical bone loss ([3]; ovariectomized female mice, daily regimen, in words): mitigated
